PubChem BioAssay (NCI)
Values joined by “and” are separate entries in the source; they are usually repeats but may differ in a detail not shown here. Identical values can stand only once.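 Tested at 5 concentrations; 48 h exposure; 96-well plates; endpoints linearly interpolated, else capped at highest concentration. At the GI50, growth is halved. TGI: total growth inhibition.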

Key:
Test in all cases: NCI-60 cell line screen, 48 h
T-47D breast = tested on: T-47D breast
SNB-75 CNS = tested on: SNB-75 CNS
K-562 leukemia = tested on: K-562 leukemia
HOP-62 NSCLC = tested on: HOP-62 NSCLC
PC-3 prostate = tested on: PC-3 prostate
HT29 colon = tested on: HT29 colon
SF-539 CNS = tested on: SF-539 CNS
MCF7 breast = tested on: MCF7 breast
MALME-3M melanoma = tested on: MALME-3M melanoma
NCI-H522 lung = tested on: NCI-H522 lung

Row | SMILES | GI50 (T-47D breast) [µM] | TGI (T-47D breast) [µM] | GI50 (SNB-75 CNS) [µM] | TGI (SNB-75 CNS) [µM] | GI50 (K-562 leukemia) [µM] | TGI (K-562 leukemia) | GI50 (HOP-62 NSCLC) [µM] | TGI (HOP-62 NSCLC) [µM] | GI50 (PC-3 prostate) [µM] | TGI (PC-3 prostate) [µM] | GI50 (HT29 colon) [µM] | TGI (HT29 colon) [µM] | GI50 (SF-539 CNS) [µM] | TGI (SF-539 CNS) [µM] | GI50 (MCF7 breast) [µM] | TGI (MCF7 breast) [µM] | GI50 (MALME-3M melanoma) [µM] | TGI (MALME-3M melanoma) | GI50 (NCI-H522 lung) [µM] | TGI (NCI-H522 lung)
1 | C[C@@H]1CC[C@@H]2[C@@H]1[C@H](OC(=O)/C=C/c1ccccc1)[C@]1(C3CCCCC3)C[C@@H](NC(=O)CO)[C@@]2(C)O1 | 14.3 | 30.8 | 12.6 | 26.9 | 21.1 | 45.1 µM | 17.4 | 33.5 | 14.9 | 28.9 | 18.9 | 35.5 | 16.7 | 31.4 | 14.4 | 32.7 | 16.3 | 33 µM | 17.1 | 33.6 µM
2 | O=C(Nc1ccc(Oc2ccc3nc(NC(=O)c4ccccc4)[nH]c3c2)cc1)Nc1cc(C(F)(F)F)ccc1F | 0.783 | 3.17 | 1.3 | 10 | 0.262 | > 7.59 µM | 0.871 | 6.65 | 0.624 | 2.76 | 1.38 | > 25 | 1.81 | 18.5 | 0.758 | 5.14 | 1.3 | 11.9 µM | 1.6 | > 14.9 µM
3 | CCOC(=O)/C=C/c1cc2cc(-c3csc4ccccc34)ccc2[nH]1 | 4.45 | 18 | 6.14 | 20.8 | 2.09 | 10.3 µM | 5.71 | 24.4 | 3.42 | 13.8 | 3.39 | 11.6 | 14 | 27.1 | 3.34 | 15.3 | 6.81 | 20.5 µM | 4.19 | 17 µM
4 | CNC(=O)c1ccc2cc(C3(O)CCn4cncc43)ccc2c1 (configuration not stated) | > 100 | > 100 | > 100 | > 100 | > 100 | > 100 µM | > 100 | > 100 | > 100 | > 100 | > 100 | > 100 | > 100 | > 100 | > 100 | > 100 | > 100 | > 100 µM | > 100 | > 100 µM
5 | COc1ccc2c(c1)C(=O)c1c-2c(Nc2ccc(C(C)=O)cc2)nc2ccccc12 | 77.2 | > 100 | 26.1 | > 100 | > 100 | > 100 µM | 3.96 | 16.2 | 34.3 | > 100 | 43.7 | > 100 | 15.5 | 44.5 | 64.7 | > 100 | 49.6 | > 100 µM | 30.3 | > 100 µM
6 | COc1ccc(-c2nn(-c3cccc(NC(=O)c4ccc5c(c4)OCCO5)c3)cc2-c2ccncc2)cc1Cl | 2.96 | 47.7 | 0.602 | 3.5 | 0.71 | 15.9 µM | 2.94 | 20.8 | 2.12 | 18.1 | 1.88 | 12.1 | 1.41 | 3.48 | 1.99 | 10.9 | 0.833 | 6.72 µM | 0.454 | 2.59 µM
7 | O=S(=O)(O)c1ccc(-c2nnc(-c3ccccn3)nc2-c2ccc(S(=O)(=O)O)o2)o1 | – | > 100 | – | > 100 | – | > 100 µM | – | > 100 | – | > 100 | – | > 100 | – | > 100 | – | > 100 | – | > 100 µM | – | > 100 µM
8 | O=P(NC12CC3CC(CC(C3)C1)C2)(N1CC1)N1CC1 | – | > 100 | – | > 100 | – | > 100 µM | – | > 100 | – | > 100 | – | > 100 | – | 75.5 | – | > 100 | – | > 100 µM | – | > 100 µM
9 | O=C(Nc1ccc(CN2CCOCC2)cc1)c1[nH]ncc1Nc1ncnc2sccc12 | 0.739 | > 100 | 0.0174 | 2.04 | 0.402 | > 100 µM | 0.669 | 41.6 | 0.494 | > 100 | 0.686 | > 100 | 0.141 | 1.15 | 0.265 | > 100 | 1.83 | 8.61 µM | 0.413 | 4.17 µM
10 | CN(N=O)C(=O)N[C@@H](C=O)[C@@H](O)[C@H](O)[C@H](O)CO | – | > 750 | 696 | > 750 | > 750 | 560 µM and > 750 µM | > 750 | > 750 | – | > 750 | > 750 | > 750 | > 750 | > 750 | – | > 633 | > 750 | 657 µM and > 750 µM | > 750 | 646 µM and > 750 µM
11 | CN(C)c1ccc(/C=C2\N=C(c3ccc([N+](=O)[O-])cc3)OC2=O)cc1 | – | > 100 | – | > 100 | – | > 100 µM | – | > 100 | – | > 100 | – | > 100 | – | > 100 | – | > 100 | – | > 100 µM | – | > 100 µM
12 | CC(C)(C#N)c1cc(F)cc(C(=O)Nc2cc(Nc3ncccc3-c3ncnc4nc[nH]c34)ccc2F)c1 | 2.9 | > 10 | 3.31 | > 10 | 0.606 | > 10 µM | 0.475 | > 10 | 7.67 | > 10 | 0.151 | > 10 | 0.527 | 5.65 | 8.73 | > 10 | 0.0236 | 0.074 µM | 2.66 | > 10 µM
